Test results from PubChem BioAssay AID1259407 (Chemical Carcinogenesis Research Information System (CCRIS), 2018).
Activity calls are given as the source filed them. How the calls were made is not given here.

System: CCRIS mutagenicity, Ames/micronucleus/aberration tests
Experiment: CCRIS mutagenicity studies
[1] = Test System: AMES SALMONELLA TYPHIMURIUM, Strain/Indicator: TA100, Metabolic Activation: NONE, Method: STANDARD PLATE
[2] = Test System: MOUSE LYMPHOMA, Strain/Indicator: L5178Y (TK+/TK-), Metabolic Activation: NONE, Method: SUSPENSION/PLATE
[3] = Test System: MOUSE LYMPHOMA, Strain/Indicator: L5178Y (TK+/TK-), Metabolic Activation: RAT, LIVER, S-9, AROCLOR 1254, Method: SUSPENSION/PLATE

ClCC(Br)CBr (stereo not given)
mutagenic call (End Point: IN VITRO CHROMOSOMAL ABERRATIONS, Test System: CHO CELLS, Metabolic Activation: NONE): active; positive
mutagenic call (End Point: IN VITRO CHROMOSOMAL ABERRATIONS, Test System: CHO CELLS, Metabolic Activation: RAT, LIVER, S-9, AROCLOR 1254): active; positive
mutagenic call (Test System: AMES SALMONELLA TYPHIMURIUM, Strain/Indicator: TA97, Metabolic Activation: HAMSTER, LIVER, S-9, AROCLOR 1254 (10%), Method: PREINCUBATION): active; positive
mutagenic call (Test System: AMES SALMONELLA TYPHIMURIUM, Strain/Indicator: TA97, Metabolic Activation: NONE, Method: PREINCUBATION): inactive; negative
mutagenic call (Test System: AMES SALMONELLA TYPHIMURIUM, Strain/Indicator: TA97, Metabolic Activation: RAT, LIVER, S-9, AROCLOR 1254 (10%), Method: PREINCUBATION): active; positive
mutagenic call (Test System: AMES SALMONELLA TYPHIMURIUM, Strain/Indicator: TA98, Metabolic Activation: HAMSTER, LIVER, S-9, AROCLOR 1254 (10%), Method: PREINCUBATION): active; positive
mutagenic call (Test System: AMES SALMONELLA TYPHIMURIUM, Strain/Indicator: TA98, Metabolic Activation: NONE, Method: FLASK ASSAY): inactive; negative
mutagenic call (Test System: AMES SALMONELLA TYPHIMURIUM, Strain/Indicator: TA98, Metabolic Activation: NONE, Method: PREINCUBATION): inactive; negative
mutagenic call (Test System: AMES SALMONELLA TYPHIMURIUM, Strain/Indicator: TA98, Metabolic Activation: RAT, LIVER, S-9, AROCLOR 1254 (10%), Method: PREINCUBATION): inactive; negative
mutagenic call (Test System: AMES SALMONELLA TYPHIMURIUM, Strain/Indicator: TA98, Metabolic Activation: RAT, LIVER, S-9, AROCLOR 1254, Method: FLASK ASSAY): active; positive
mutagenic call (Test System: AMES SALMONELLA TYPHIMURIUM, Strain/Indicator: TA100, Metabolic Activation: HAMSTER, LIVER, S-9, AROCLOR 1254 (10%), Method: PREINCUBATION): active; positive
mutagenic call (Test System: AMES SALMONELLA TYPHIMURIUM, Strain/Indicator: TA100, Metabolic Activation: NONE, Method: FLASK ASSAY): inactive; negative
mutagenic call (Test System: AMES SALMONELLA TYPHIMURIUM, Strain/Indicator: TA100, Metabolic Activation: NONE, Method: PREINCUBATION): inactive; negative
mutagenic call [1]: inactive; negative
mutagenic call (Test System: AMES SALMONELLA TYPHIMURIUM, Strain/Indicator: TA100, Metabolic Activation: NONE, Method: SUSPENSION/PLATE): inactive; negative
mutagenic call (Test System: AMES SALMONELLA TYPHIMURIUM, Strain/Indicator: TA100, Metabolic Activation: RAT TESTICULAR CELLS, Method: STANDARD PLATE): inactive; negative
mutagenic call (Test System: AMES SALMONELLA TYPHIMURIUM, Strain/Indicator: TA100, Metabolic Activation: RAT, HEPATOCYTES, AROCLOR 1254, Method: STANDARD PLATE): active; positive
mutagenic call (Test System: AMES SALMONELLA TYPHIMURIUM, Strain/Indicator: TA100, Metabolic Activation: RAT, HEPATOCYTES, Method: STANDARD PLATE): active; positive
mutagenic call (Test System: AMES SALMONELLA TYPHIMURIUM, Strain/Indicator: TA100, Metabolic Activation: RAT, LIVER, HEPATOCYTES, Method: SUSPENSION/PLATE): active; positive
mutagenic call (Test System: AMES SALMONELLA TYPHIMURIUM, Strain/Indicator: TA100, Metabolic Activation: RAT, LIVER, MICROSOMES, AROCLOR 1254, Method: PREINCUBATION): active; positive
mutagenic call (Test System: AMES SALMONELLA TYPHIMURIUM, Strain/Indicator: TA100, Metabolic Activation: RAT, LIVER, MICROSOMES, PHENOBARBITAL, NADPH COFACTORS, Method: STANDARD PLATE): active; positive
mutagenic call (Test System: AMES SALMONELLA TYPHIMURIUM, Strain/Indicator: TA100, Metabolic Activation: RAT, LIVER, MICROSOMES, PHENOBARBITAL, Method: PREINCUBATION): active; positive
mutagenic call (Test System: AMES SALMONELLA TYPHIMURIUM, Strain/Indicator: TA100, Metabolic Activation: RAT, LIVER, MICROSOMES, PHENOBARBITAL, Method: STANDARD PLATE): inactive; negative
mutagenic call (Test System: AMES SALMONELLA TYPHIMURIUM, Strain/Indicator: TA100, Metabolic Activation: RAT, LIVER, MICROSOMES, Method: PREINCUBATION): active; positive
mutagenic call (Test System: AMES SALMONELLA TYPHIMURIUM, Strain/Indicator: TA100, Metabolic Activation: RAT, LIVER, S-9, AROCLOR 1254 (10%), Method: PREINCUBATION): active; positive
mutagenic call (Test System: AMES SALMONELLA TYPHIMURIUM, Strain/Indicator: TA100, Metabolic Activation: RAT, LIVER, S-9, AROCLOR 1254, Method: FLASK ASSAY): active; positive
mutagenic call (Test System: AMES SALMONELLA TYPHIMURIUM, Strain/Indicator: TA100, Metabolic Activation: RAT,TESTICULAR CELLS, AROCLOR 1254, Method: STANDARD PLATE): inactive; negative
mutagenic call (Test System: AMES SALMONELLA TYPHIMURIUM, Strain/Indicator: TA100, Metabolic Activation: S-9 MIX, Method: STANDARD PLATE): active; positive
mutagenic call (Test System: AMES SALMONELLA TYPHIMURIUM, Strain/Indicator: TA1535, Metabolic Activation: HAMSTER, LIVER, S-9, AROCLOR 1254 (10%), Method: PREINCUBATION): active; positive
mutagenic call (Test System: AMES SALMONELLA TYPHIMURIUM, Strain/Indicator: TA1535, Metabolic Activation: NONE, Method: FLASK ASSAY): active; positive
mutagenic call (Test System: AMES SALMONELLA TYPHIMURIUM, Strain/Indicator: TA1535, Metabolic Activation: NONE, Method: PREINCUBATION): inactive; negative
mutagenic call (Test System: AMES SALMONELLA TYPHIMURIUM, Strain/Indicator: TA1535, Metabolic Activation: RAT, LIVER, S-9, AROCLOR 1254 (10%), Method: PREINCUBATION): active; positive
mutagenic call (Test System: AMES SALMONELLA TYPHIMURIUM, Strain/Indicator: TA1535, Metabolic Activation: RAT, LIVER, S-9, AROCLOR 1254, Method: FLASK ASSAY): active; positive
mutagenic call (Test System: AMES SALMONELLA TYPHIMURIUM, Strain/Indicator: TA1537, Metabolic Activation: HAMSTER, LIVER, S-9, AROCLOR 1254 (10%), Method: PREINCUBATION): inactive; negative
mutagenic call (Test System: AMES SALMONELLA TYPHIMURIUM, Strain/Indicator: TA1537, Metabolic Activation: NONE, Method: FLASK ASSAY): inactive; negative
mutagenic call (Test System: AMES SALMONELLA TYPHIMURIUM, Strain/Indicator: TA1537, Metabolic Activation: RAT, LIVER, S-9, AROCLOR 1254 (10%), Method: PREINCUBATION): inactive; negative
mutagenic call (Test System: AMES SALMONELLA TYPHIMURIUM, Strain/Indicator: TA1537, Metabolic Activation: RAT, LIVER, S-9, AROCLOR 1254, Method: FLASK ASSAY): inactive; negative
mutagenic call (Test System: AMES SALMONELLA TYPHIMURIUM, Strain/Indicator: TA1538, Metabolic Activation: NONE, Method: FLASK ASSAY): inactive; negative
mutagenic call (Test System: AMES SALMONELLA TYPHIMURIUM, Strain/Indicator: TA1538, Metabolic Activation: RAT, LIVER, S-9, AROCLOR 1254, Method: FLASK ASSAY): inactive; negative
mutagenic call [2]: active; positive
mutagenic call [3]: active; positive
mutagenic call (Test System: UDS RODENT HEPATOCYTES, Strain/Indicator: THY INCORP (NON-S-PHASE), Metabolic Activation: AROCLOR 1254, Method: LIQUID SCINTILLATION COUNTING): inactive; negative
mutagenic call (Test System: UDS RODENT HEPATOCYTES, Strain/Indicator: THY INCORP (NON-S-PHASE), Metabolic Activation: NONE, Method: LIQUID SCINTILLATION COUNTING): active; positive

CC(=O)O.CC(=O)O.O.O.[O]=[U]=[O]
mutagenic call (Test System: Chinese hamster ovary, Strain/Indicator: AA8 (HPRT)/6-Thioguanine, Metabolic Activation: None, Method: Standard plate): inactive; negative
mutagenic call (Test System: Chinese hamster ovary, Strain/Indicator: EM9 (HPRT)/6-Thioguanine, Metabolic Activation: None, Method: Standard plate): active; positive, em9 cho cells are xrcc1-deficient.

OCc1ccc(Br)cc1
mutagenic call [1]: inactive; negative

Nc1nccs1
mutagenic call (Test System: AMES SALMONELLA TYPHIMURIUM, Strain/Indicator: TA98, Metabolic Activation: RAT, LIVER, S-9, AROCLOR 1254, HAMSTER, LIVER, S-9, AROCLOR 1254, Method: STANDARD PLATE): active; positive
mutagenic call (Test System: AMES SALMONELLA TYPHIMURIUM, Strain/Indicator: TA1538, Metabolic Activation: RAT, LIVER, S-9, AROCLOR 1254, HAMSTER, LIVER, S-9, AROCLOR 1254, Method: STANDARD PLATE): active; positive
mutagenic call [2]: active; positive. reevaluation of results: equivocal
mutagenic call [3]: active; positive. reevaluation of results: equivocal
